Key:
C. difficile strain 4013 [1] = experiment: Hamster CDAD induced by oral C. difficile challenge plus clindamycin; type: in vivo, Syrian hamsters; conditions: for animals surviving the study: all doses
Method: In a second study, animals were challenged orally with a bacterial suspension of C. difficile and then administered a single s.c. injection of 100 mg/kg clindamycin. Oral treatment with ramoplanin or vancomycin at 25-50-100 mg/kg or metronidazole at 100-200-400 mg/kg started 24 hours after clindamycin administration and lasted for five days. Hamsters were weighed and observed every 24 hours for evidence of diarrhea or moribund conditions, and the cecal contents were analyzed for C. difficile toxin A (ELISA).

C. difficile [2] = experiment: Recovery of C. difficile spores or vegetative cells from clindamycin-treated animals; type: in vivo, hamster; conditions: after single dose of clindamycin and treatment
Method: In another study, animals were administered a single dose of clindamycin and then treated with either vancomycin or ramoplanin.

C. difficile [3] = experiment: Hamster model of clindamycin-induced C. difficile-associated colitis; type: in vivo, Syrian hamsters; conditions: oral 50 mg/kg/day for 5 days; for survival rate: from 24 hours after clindamycin 100 mg/kg s.c., monitored 20 days
Method: To evaluate the in vivo efficacy of ramoplanin in the treatment of C. difficile-associated colitis, ramoplanin was tested in a hamster model of clindamycin (CL)-induced colitis in comparison with both vancomycin and metronidazole. Animals were treated with a single subcutaneous (s.c.) injection of 100 mg/kg clindamycin, and after 24 hours received oral ramoplanin or vancomycin at 50 mg/kg/day for 5 days. Animals were observed daily for the presence or absence of diarrhea. Necropsies were performed on some animals that died during the experiment, and cecal contents were assayed for C. difficile toxin A. Hamsters were monitored for 20 days, and the cumulative mortality during this period was recorded (FIG. 1). […] C. difficile toxin A was always detected in these animals. […] All hamsters that died had gross pathologic evidence of enterocolitis and cecal contents were positive for Toxin A.

Clostridium spp. = experiment: Multiple dose study, antibacterial activity on stool microflora: Clostridium spp.; type: in vivo, human
Method: (§1) The antibacterial activity of ramoplanin on the stool microflora was assessed in a subset of the subjects. Microbial concentrations (i.e., the number of organisms per gram of fecal matter) were determined at the following time points: Day −4 (pre-treatment), Days 4 and 10 (treatment), and Days 7 and 24 (follow-up). Tolerability and absorption were also investigated.

[4] = test system: Gram-positive bacteria (staphylococci, streptococci, enterococci); experiment: Multiple dose study, antibacterial activity on stool microflora: Gram-positive bacteria; type: in vivo, human
Method: as §1

[5] = Single oral dose study in healthy male volunteers: absorption and fecal recovery; type: in vivo, human
Method: The absorption, tolerability, and recovery of ramoplanin following single dose oral administration were investigated in male volunteers. Ramoplanin was administered as an aqueous solution at a dose of 100, 200, 500, or 1000 mg to fasting subjects. Serum samples were obtained prior to drug administration of ramoplanin and 0.5, 1, 2, 3, 6, 9, 12, 24, 48, 72, and 96 hours after treatment. Urine samples were collected prior to administration of ramoplanin and over the periods 0-3,3-6, 6-12, 12-24, 24-48, 48-72, and 72-96 hours after dosing. Fecal samples were collected prior to dosing and over the periods 0-16 (Day 1), 16-40 (Day 2), 40-64 (Day 3), 64-88 (Day 4), and 88-96 (Day 5) hours after dosing. A microbiological assay employing Bacillis subtilis ATCC 6633 as the test organism was used to determine ramoplanin concentrations in serum, urine, and feces. The limits of quantitation for this assay were 0.02 μg/mL in serum, 0.012 μg/mL in urine, and 3 μg/g in feces. Tolerability was assessed on the basis of clinical signs and symptoms and the results of blood and urine laboratory tests.

[6] = test system: Gram-negative bacteria (enteric bacteria and Bacteroides spp.) or yeast; experiment: Multiple dose study, antibacterial activity on stool microflora: Gram-negative bacteria and yeast; type: in vivo, human
Method: as §1

VRE = experiment: Multiple dose study in asymptomatic carriers of intestinal VRE; type: in vivo, human; conditions: for patients remaining VRE free: Day 14 (seven days after cessation)
Method: Patients identified as asymptomatic carriers of VRE were administered placebo or one of two dosages (100 mg, 400 mg) of ramoplanin BID (twice daily) for seven days. Patients were assessed by rectal swab on Days 7, 14, and 21 to determine the presence or absence of VRE. On Days 45 and 90, stool samples were analyzed for long-term effects of ramoplanin on the recurrence of, or reinfection with, VRE. All VRE isolates were tested for susceptibility to ramoplanin.

C. difficile strain 4013 [7] = experiment: Hamster CDAD, different durations of treatment; type: in vivo, Syrian hamsters; conditions: ramoplanin 50 mg/kg oral daily for 3 days versus vancomycin 50 mg/kg for 5 days
Method: Hamsters were inoculated with C. difficile on day 0 and then administered 100 mg/kg clindamycin s.c. on day 1. Hamsters received daily oral doses of 50 mg/kg ramoplanin or vancomycin for 3 or 5 days starting on day 2.

[8] = Multiple oral dose study in healthy male volunteers: absorption and fecal concentrations; type: in vivo, human
Method: Healthy male volunteers were administered 200, 400, or 800 mg ramoplanin twice-a-day, for ten consecutive days. The predetermined dose was reconstituted in 5 mL water per vial, mixed with 50 mL of sweetened, aromatized solution, and immediately administered orally to the subjects.
No absorption from the human gastrointestinal tract was observed.

[9] = In vitro interaction of ramoplanin with human intestinal contents
Text: The in vitro interaction of ramoplanin with human intestinal contents was studied. […] The binding and the subsequent release of ramoplanin from feces would likely result in long-lasting concentrations in the intestinal tract.

Cc1ncc([N+](=O)[O-])n1CCO [metronidazole]
animals surviving the study (C. difficile strain 4013 [1]; oral for five days): No animals treated with vancomycin or metronidazole survived the study
prolonged survival (C. difficile strain 4013 [1]; oral for five days, ramoplanin or vancomycin 25-50-100 mg/kg, metronidazole 100-200-400 mg/kg): 9 days

CN[C@H](CC(C)C)C(=O)N[C@H]1C(=O)N[C@@H](CC(N)=O)C(=O)N[C@H]2C(=O)N[C@H]3C(=O)N[C@H](C(=O)N[C@H](C(=O)O)c4cc(O)cc(O)c4-c4cc3ccc4O)[C@H](O)c3ccc(c(Cl)c3)Oc3cc2cc(c3O[C@@H]2O[C@H](CO)[C@@H](O)[C@H](O)[C@H]2O[C@H]2C[C@](C)(N)[C@H](O)[C@H](C)O2)Oc2ccc(cc2Cl)[C@H]1O [vancomycin, reference compound]
recovery of C. difficile spores or vegetative cells (C. difficile [2]): C. difficile spores were recovered from some of the animals
animals surviving the study (C. difficile strain 4013 [1]; oral for five days): No animals treated with vancomycin or metronidazole survived the study
prolonging survival and protecting animals from death (C. difficile [3]): highly effective
survival rate (C. difficile [3]): 20%

ramoplanin
recovery of C. difficile spores or vegetative cells (C. difficile [2]): No C. difficile spores or vegetative cells were recovered
clostridial load in the two subjects carrying ramoplanin- and vancomycin-resistant Clostridium spp. (C. rectum and C. bejerinckii) (Clostridium spp.; multiple dose, ten days): no variation in the clostridial load
subjects with Clostridium spp. concentration reduced below detectable levels (Clostridium spp.; multiple dose, ten days): 10 of 12
ramoplanin- or vancomycin-resistant C. difficile strains in stool (Clostridium spp.; pre- or post-treatment): No ramoplanin- or vancomycin-resistant strain of C. difficile was detected
Gram-positive colony counts in feces ([4]; all doses (200, 400 or 800 mg BID), during the 10-day regimen): undetectable levels
concentrations of staphylococci, streptococci and enterococci in stool ([4]; by Day 10, all subjects): below the level of detection
effect on Gram-positive bacteria of the stool ([4]; first measurement on Day 4): marked effect
mean cumulative recovery in feces, of the administered dose ([5]; 100 mg single oral dose): 67.7%
mean maximum concentration in feces ([5]; 100 mg single oral dose): 214 µg/g
range of cumulative recovery in feces ([5]; 100 mg single oral dose): 55.7-84%
range of maximum concentrations in feces ([5]; 100 mg single oral dose): 148 to 278 µg/g
mean cumulative recovery in feces, of the administered dose ([5]; 200 mg single oral dose): 48.5%
mean maximum concentration in feces ([5]; 200 mg single oral dose): 287 µg/g
range of cumulative recovery in feces ([5]; 200 mg single oral dose): 39.3-56.5%
range of maximum concentrations in feces ([5]; 200 mg single oral dose): 164 to 454 µg/g
mean cumulative recovery in feces, of the administered dose ([5]; 500 mg single oral dose): 52.8%
mean maximum concentration in feces ([5]; 500 mg single oral dose): 1655 µg/g
range of cumulative recovery in feces ([5]; 500 mg single oral dose): 41.3-79.6%
range of maximum concentrations in feces ([5]; 500 mg single oral dose): 737 to 3316 µg/g
mean cumulative recovery in feces, of the administered dose ([5]; 1000 mg single oral dose): 46.4%
mean maximum concentration in feces ([5]; 1000 mg single oral dose): 1835 µg/g
range of cumulative recovery in feces ([5]; 1000 mg single oral dose): 39.9-58.4%
range of maximum concentrations in feces ([5]; 1000 mg single oral dose): 1336 to 3154 µg/g
subjects with ramoplanin still detectable in feces ([5]; fourth day of study, single oral dose): 17 of 24
time of maximum concentration and maximum percentage recovery in feces ([5]; single oral dose, not dose dependent): Day 2
detection in serum/plasma or urine ([5]; single oral doses up to 1000 mg and multiple oral doses 200, 400 or 800 mg BID for 10 days, bioassay and HPLC): not detected
activity against Gram-negative flora in feces ([6]; 200, 400 or 800 mg BID for 10 days): not effective
effect on Gram-negative bacteria (enteric bacteria and Bacteroides spp.) or yeast of the stool ([6]; multiple dose, ten days): no effect
survival at the end of observation period (C. difficile strain 4013 [1]; 100 mg/kg oral for five days): 20%
time of death compared to vancomycin-treated animals (C. difficile strain 4013 [1]; oral for five days): delayed compared to that of vancomycin-treated animals
suppression of intestinal VRE (primary efficacy variable) (VRE; 100 mg or 400 mg BID for seven days): effectively suppressed intestinal VRE
patients with no detectable VRE (VRE; Day 7, 100 mg BID for seven days, 17 of 21 patients): 81.0%
patients with no detectable VRE (VRE; Day 7, 400 mg BID for seven days, 18 of 20 patients): 90.0%
patients remaining VRE free (VRE; 100 mg BID, 6 of 21 patients): 28.6%
patients remaining VRE free (VRE; 400 mg BID, 7 of 17 patients): 41.2%
number of VRE-free patients (VRE; Day 21): comparable among all treatment groups
efficacy by duration of treatment (C. difficile strain 4013 [7]): more effective than vancomycin administration for 5 days
prolonging survival and protecting animals from death (C. difficile [3]): highly effective
survival rate (C. difficile [3]): 80%
absorption from the human gastrointestinal tract ([8]; 200, 400 or 800 mg twice-a-day for ten days): No absorption
urine levels ([8]; Day 1 and 5 and pooled urine up to 72-96 after the last dose): No levels were found in urine
average fecal concentration ([8]; Day 3, 200 mg twice-a-day): 827 µg/g
average fecal concentration ([8]; Day 3, 400 mg twice-a-day): 1742 µg/g
average fecal concentration ([8]; Day 3, 800 mg twice-a-day): 1901 µg/g
average fecal concentration ([8]; Day 10, 200 mg twice-a-day): 949 µg/g
average fecal concentration ([8]; Day 10, 400 mg twice-a-day): 1417 µg/g
average fecal concentration ([8]; Day 10, 800 mg twice-a-day): 2647 µg/g
serum levels ([8]; Days 1, 5 and 10, hour 0.5, 1, 2, 3, 6, 9 and 12 after the morning dose): no serum levels of ramoplanin were detected
fecal concentrations post-treatment ([8]; after ten days of twice-a-day dosing): remained detectable in some subjects four days post-treatment
cumulative recovery in feces, of the administered dose ([8]; up to Day 4 post-treatment): 25%
binding to solid components of feces [9]: bind reversibly to solid components of feces
microbiological activity in feces [9]: microbiologically active in feces

Reference: patent US7317001B2, “Use of ramoplanin to treat diseases associated with the use of antibiotics” (priority 2002, dated 2008)
